Laboratory results taken from ChEMBL document CHEMBL1201862, “PubChem BioAssay data set” (2004).
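In this assay, cells in 96-well plates receive the compound at five concentrations for 48 hours. Endpoints are linearly interpolated between the surrounding concentrations. Abbreviation: GI50, concentration required for 50% inhibition of growth.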 Activity calls are given as the source filed them. Cut-off read from the data, not from the text of the source: active = GI50 up to about 1.1 µM and inactive = higher.

How the values were obtained:
Test in all cases: NCI tumour cell line growth inhibition, 48 h
SNB-75 = test system: SNB-75
RPMI-8226 = test system: RPMI-8226
MOLT-4 = test system: MOLT-4
RXF 393 = test system: RXF 393
KM-20L2 = test system: KM-20L2
HOP-92 = test system: HOP-92
COLO 205 = test system: COLO 205
SK-OV-3 = test system: SK-OV-3
Malme-3M = test system: Malme-3M
SK-MEL-5 = test system: SK-MEL-5
SF-539 = test system: SF-539
SF-268 = test system: SF-268
U-251 = test system: U-251
ACHN = test system: ACHN
M14 = test system: M14
HL-60 = test system: HL-60
UO-31 = test system: UO-31
UACC-257 = test system: UACC-257
NCI-H226 = test system: NCI-H226
DLD-1 = test system: DLD-1
UACC-62 = test system: UACC-62
SW-620 = test system: SW-620
A549 = test system: A549
IGROV-1 = test system: IGROV-1
786-0 = test system: 786-0
SF-295 = test system: SF-295
HCT-116 = test system: HCT-116
KM12 = test system: KM12
SK-MEL-28 = test system: SK-MEL-28
M19-MEL = test system: M19-MEL
OVCAR-5 = test system: OVCAR-5
NCI-H460 = test system: NCI-H460
EKVX = test system: EKVX
HCC 2998 = test system: HCC 2998
DMS-273 = test system: DMS-273
NCI-H522 = test system: NCI-H522
OVCAR-4 = test system: OVCAR-4
DMS-114 = test system: DMS-114
HOP-18 = test system: HOP-18
LXFL 529 = test system: LXFL 529
SNB-78 = test system: SNB-78
HCT-15 = test system: HCT-15
SK-MEL-2 = test system: SK-MEL-2
K562 = test system: K562
TK-10 = test system: TK-10
OVCAR-8 = test system: OVCAR-8
NCI-H23 = test system: NCI-H23
OVCAR-3 = test system: OVCAR-3
HT-29 = test system: HT-29
SN12C = test system: SN12C
A498 = test system: A498
XF498 = test system: XF498
CCRF-CEM = test system: CCRF-CEM

`Oc1c(Cl)c2nccnc2c2ccccc12` was tested, and the GI50 (SNB-75) was > 100 µM (inactive), the GI50 (RPMI-8226) was > 100 µM (inactive) and the GI50 (MOLT-4) was > 100 µM (inactive). For the same compound, the GI50 (RXF 393) was > 100 µM (inactive), the GI50 (KM-20L2) was > 100 µM (inactive) and the GI50 (HOP-92) was > 100 µM (inactive). For the same compound, the GI50 (COLO 205) was > 100 µM (inactive), the GI50 (SK-OV-3) was > 100 µM (inactive) and the GI50 (Malme-3M) was > 100 µM (inactive). For the same compound, the GI50 (SK-MEL-5) was > 100 µM (inactive), the GI50 (SF-539) was > 100 µM (inactive) and the GI50 (SF-268) was > 100 µM (inactive). For the same compound, the GI50 (U-251) was > 100 µM (inactive), the GI50 (ACHN) was > 100 µM (inactive) and the GI50 (M14) was > 100 µM (inactive). For the same compound, the GI50 (HL-60) was > 100 µM (inactive), the GI50 (UO-31) was > 100 µM (inactive) and the GI50 (UACC-257) was > 100 µM (inactive). For the same compound, the GI50 (NCI-H226) was > 100 µM (inactive), the GI50 (DLD-1) was > 100 µM (inactive) and the GI50 (UACC-62) was > 100 µM (inactive). The GI50 (SW-620) was > 100 µM (inactive), the GI50 (A549) was > 100 µM (inactive) and the GI50 (IGROV-1) was > 100 µM (inactive). For the same compound, the GI50 (786-0) was > 100 µM (inactive), the GI50 (SF-295) was > 100 µM (inactive) and the GI50 (HCT-116) was > 100 µM (inactive). For the same compound, the GI50 (KM12) was > 100 µM (inactive), the GI50 (SK-MEL-28) was > 100 µM (inactive) and the GI50 (M19-MEL) was > 100 µM (inactive). For the same compound, the GI50 (OVCAR-5) was > 100 µM (inactive), the GI50 (NCI-H460) was > 100 µM (inactive) and the GI50 (EKVX) was > 100 µM (inactive). The GI50 (HCC 2998) was > 100 µM (inactive), the GI50 (DMS-273) was > 100 µM (inactive) and the GI50 (NCI-H522) was > 100 µM (inactive). For the same compound, the GI50 (OVCAR-4) was > 100 µM (inactive), the GI50 (DMS-114) was > 100 µM (inactive) and the GI50 (HOP-18) was 36.9 µM (inactive). For the same compound, the GI50 (LXFL 529) was > 100 µM (inactive), the GI50 (SNB-78) was > 100 µM (inactive) and the GI50 (HCT-15) was > 100 µM. For the same compound, the GI50 (SK-MEL-2) was > 100 µM (inactive), the GI50 (K562) was > 100 µM (inactive) and the GI50 (TK-10) was > 100 µM (inactive). For the same compound, the GI50 (OVCAR-8) was > 100 µM (inactive), the GI50 (NCI-H23) was > 100 µM (inactive) and the GI50 (OVCAR-3) was > 100 µM (inactive). For the same compound, the GI50 (HT-29) was > 100 µM (inactive), the GI50 (SN12C) was > 100 µM (inactive) and the GI50 (A498) was > 100 µM (inactive). For the same compound, the GI50 (XF498) was > 100 µM (inactive) and the GI50 (CCRF-CEM) was > 100 µM (inactive).
